Measurements as given in publication PMC8197425, “ATP regulates RNA‐driven cold inducible RNA binding protein phase separation” (Protein Science : A Publication of the Protein Society, 2021).

The compounds below were run against T1, CIRBP (Homo sapiens, UniProt Q14011) (assay: 1H-15N HSQC NMR titration). Settings: not given.
T1 construct: full length (1-172), wild type; His6-protein A tag removed by TEV protease; E. coli BL21-DE3 Star; 15N-labelled
T1 sequence (Q14011 1-172): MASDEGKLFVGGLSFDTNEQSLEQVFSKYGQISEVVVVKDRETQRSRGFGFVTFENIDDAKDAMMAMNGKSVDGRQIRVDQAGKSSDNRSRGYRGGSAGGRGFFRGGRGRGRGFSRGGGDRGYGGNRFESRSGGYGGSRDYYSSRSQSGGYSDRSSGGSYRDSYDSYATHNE
Format: binding
From the text: 1H-15N HSQC NMR titration on CIRBP | ATP binding to CIRBP is in the fast exchange regime with an associated KD

SMILES	Kd [µM]
Nc1ncnc2c1ncn2[C@@H]1O[C@H](COP(=O)(O)OP(=O)(O)OP(=O)(O)O)[C@@H](O)[C@H]1O [ATP]	2900 ± 1400

What follows are compounds tested against T1, CIRBP (assay: 1H-15N HSQC NMR chemical shift perturbation). Settings: 17 μM 15N-CIRBP; 10 mM ligand; 50 mM sodium phosphate, 150 mM NaCl, pH 6.5, 298 K; RRM and RG/RGG region.
Format: binding

SMILES	1H-15N HSQC NMR chemical shift perturbation
Nc1ncnc2c1ncn2[C@@H]1O[C@H](COP(=O)(O)OP(=O)(O)O)[C@@H](O)[C@H]1O [ADP]	ADP and NAD^+ showed binding to CIRBP (Figure 2a,c)
Nc1ncnc2c1ncn2[C@@H]1O[C@H](COP(=O)(O)O)[C@@H](O)[C@H]1O [AMP]	the other tested nucleotides (ATP, AMP)
NC(=O)c1ccc[n+]([C@@H]2O[C@H](COP(=O)(O)OP(=O)(O)OC[C@H]3O[C@@H](n4cnc5c(N)ncnc54)[C@H](O)[C@@H]3O)[C@@H](O)[C@H]2O)c1 [NAD+]	ADP and NAD^+ showed binding to CIRBP (Figure 2a,c)
NC(=O)C1=CN([C@@H]2O[C@H](COP(=O)(O)OP(=O)(O)OC[C@H]3O[C@@H](n4cnc5c(N)ncnc54)[C@H](O)[C@@H]3O)[C@@H](O)[C@H]2O)C=CC1 [NADH]	dinucleotides (NADH, NADP^+ and NADPH) showed significant binding to CIRBP
NC(=O)C1=CN([C@@H]2O[C@H](COP(=O)(O)OP(=O)(O)OC[C@H]3O[C@@H](n4cnc5c(N)ncnc54)[C@H](OP(=O)(O)O)[C@@H]3O)[C@@H](O)[C@H]2O)C=CC1 [NADPH]	dinucleotides (NADH, NADP^+ and NADPH) showed significant binding to CIRBP
